The values that follow come from patent US12157741B2, “Macrocyclic inhibitors of DYRK1A” (DANA-FARBER CANCER INSTITUTE, INC., priority 2018, dated 2024).

Holding throughout (assay type): binding
In test [1] the target is various enzymes (Homo sapiens, UniProt Q9UPE1). The note with it: compound 1 uM. Here is the method:
(§1) Ambit profiling was conducted in accordance with the manufacturer's instructions.

The target in test [2] is various enzymes (Homo sapiens, UniProt Q6P2M8). To be noted: compound 1 uM. Here is the method: as §1
Test [3] has as its target various enzymes (Homo sapiens, UniProt O43293). The note with it: compound 1 uM. Here is the method: as §1
For test [4], the target named is various enzymes (Homo sapiens, UniProt Q9Y4K4). To be noted: compound 1 uM. Here is the method: as §1
Sequence of various enzymes (Homo sapiens, UniProt Q9Y4K4) (Q9Y4K4 whole entry): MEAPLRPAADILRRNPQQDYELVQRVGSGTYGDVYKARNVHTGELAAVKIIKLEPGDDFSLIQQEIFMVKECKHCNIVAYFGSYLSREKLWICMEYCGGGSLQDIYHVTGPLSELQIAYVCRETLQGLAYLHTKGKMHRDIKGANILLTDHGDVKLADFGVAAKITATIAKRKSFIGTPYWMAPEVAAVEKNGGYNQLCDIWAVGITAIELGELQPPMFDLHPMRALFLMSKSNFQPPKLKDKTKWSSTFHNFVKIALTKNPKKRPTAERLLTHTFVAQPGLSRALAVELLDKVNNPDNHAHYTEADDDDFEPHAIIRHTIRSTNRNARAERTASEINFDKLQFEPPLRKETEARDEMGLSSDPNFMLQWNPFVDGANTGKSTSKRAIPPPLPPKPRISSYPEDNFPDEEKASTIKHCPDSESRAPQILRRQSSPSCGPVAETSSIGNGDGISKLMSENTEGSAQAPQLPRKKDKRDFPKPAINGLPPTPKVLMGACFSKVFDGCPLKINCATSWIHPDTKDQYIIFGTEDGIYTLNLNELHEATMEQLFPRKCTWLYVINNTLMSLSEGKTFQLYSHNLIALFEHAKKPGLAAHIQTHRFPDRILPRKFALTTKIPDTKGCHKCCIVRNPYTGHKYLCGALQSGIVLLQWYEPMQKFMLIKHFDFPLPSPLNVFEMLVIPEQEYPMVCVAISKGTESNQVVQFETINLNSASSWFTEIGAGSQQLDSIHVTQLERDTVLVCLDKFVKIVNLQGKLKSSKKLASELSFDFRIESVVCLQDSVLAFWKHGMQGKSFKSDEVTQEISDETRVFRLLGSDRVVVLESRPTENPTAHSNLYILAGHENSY
Test [5] deals with various enzymes (Homo sapiens, UniProt P08581). To be noted: compound 1 uM. Here is the method:
as §1

Test [6] concerns the target various enzymes (Homo sapiens, UniProt Q9NY57). To be noted: compound 1 uM. Here is the method: as §1
In test [7] the target is T1, various enzymes (Homo sapiens, UniProt Q13873).
T1 sequence (Q13873 27-1038): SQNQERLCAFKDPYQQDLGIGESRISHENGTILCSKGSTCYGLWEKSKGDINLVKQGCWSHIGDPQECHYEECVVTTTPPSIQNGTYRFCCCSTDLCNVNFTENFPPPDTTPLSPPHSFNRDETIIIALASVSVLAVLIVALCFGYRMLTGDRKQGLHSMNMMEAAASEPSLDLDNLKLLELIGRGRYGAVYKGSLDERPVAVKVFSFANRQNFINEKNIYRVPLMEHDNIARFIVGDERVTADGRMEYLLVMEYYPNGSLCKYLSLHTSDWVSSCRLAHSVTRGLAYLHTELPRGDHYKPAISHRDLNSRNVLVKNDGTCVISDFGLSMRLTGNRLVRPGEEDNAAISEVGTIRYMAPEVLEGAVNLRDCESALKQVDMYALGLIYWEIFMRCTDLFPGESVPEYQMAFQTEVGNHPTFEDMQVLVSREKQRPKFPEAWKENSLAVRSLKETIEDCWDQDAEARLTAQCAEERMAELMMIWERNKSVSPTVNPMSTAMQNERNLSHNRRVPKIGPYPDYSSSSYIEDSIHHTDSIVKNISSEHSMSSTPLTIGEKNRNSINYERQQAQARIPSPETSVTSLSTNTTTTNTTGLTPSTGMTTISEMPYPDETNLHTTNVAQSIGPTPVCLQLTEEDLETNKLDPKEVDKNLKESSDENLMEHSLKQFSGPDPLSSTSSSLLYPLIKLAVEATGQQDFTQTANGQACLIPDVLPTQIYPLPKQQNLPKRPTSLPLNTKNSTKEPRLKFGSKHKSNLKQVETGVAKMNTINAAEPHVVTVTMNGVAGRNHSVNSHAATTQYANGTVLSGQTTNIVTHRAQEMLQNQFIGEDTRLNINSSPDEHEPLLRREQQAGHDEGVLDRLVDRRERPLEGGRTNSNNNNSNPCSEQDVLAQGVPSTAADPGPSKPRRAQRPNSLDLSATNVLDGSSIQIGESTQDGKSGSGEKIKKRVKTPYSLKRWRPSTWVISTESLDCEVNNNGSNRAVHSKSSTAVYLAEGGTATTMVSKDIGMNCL
To be noted: compound 1 uM. Here is the method:
as §1

For test [8], the target named is various enzymes (Homo sapiens, UniProt O75747). The note with it: compound 1 uM. Here is the method:
as §1

The target in test [9] is T2, various enzymes (Homo sapiens, UniProt Q08881).
T2 sequence (Q08881 1-620): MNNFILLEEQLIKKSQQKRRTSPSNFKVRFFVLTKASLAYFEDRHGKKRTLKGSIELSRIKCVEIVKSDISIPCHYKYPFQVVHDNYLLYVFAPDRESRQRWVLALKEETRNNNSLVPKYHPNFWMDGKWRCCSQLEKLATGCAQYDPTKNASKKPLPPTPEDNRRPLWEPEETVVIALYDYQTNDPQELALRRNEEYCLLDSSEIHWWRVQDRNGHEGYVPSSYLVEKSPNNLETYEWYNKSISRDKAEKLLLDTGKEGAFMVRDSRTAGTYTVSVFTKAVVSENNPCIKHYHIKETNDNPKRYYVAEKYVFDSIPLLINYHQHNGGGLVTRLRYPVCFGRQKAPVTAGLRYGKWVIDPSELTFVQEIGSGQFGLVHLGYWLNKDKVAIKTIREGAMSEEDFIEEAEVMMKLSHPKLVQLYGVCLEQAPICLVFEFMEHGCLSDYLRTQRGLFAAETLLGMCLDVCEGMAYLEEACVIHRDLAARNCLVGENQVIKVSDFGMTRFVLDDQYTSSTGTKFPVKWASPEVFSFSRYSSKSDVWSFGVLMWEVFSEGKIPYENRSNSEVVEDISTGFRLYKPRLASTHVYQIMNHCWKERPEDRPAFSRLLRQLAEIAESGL
The note with it: compound 1 uM. Here is the method: as §1

For test [10], the target named is various enzymes (Mycobacterium tuberculosis, UniProt P9WI81). To be noted: compound 1 uM. Here is the method:
as §1

Test [11] concerns the target various enzymes (Homo sapiens, UniProt Q8IU85). The note with it: compound 1 uM. Here is the method:
as §1

Test [12] concerns the target various enzymes (Homo sapiens, UniProt Q96Q40). The note with it: compound 1 uM. Here is the method:
as §1

In test [13] the target is various enzymes (Homo sapiens, UniProt Q9NRP7). To be noted: compound 1 uM. Here is the method:
as §1

In test [14] the target is various enzymes (Homo sapiens, UniProt P49761). To be noted: compound 1 uM. Here is the method:
as §1

Test [15] concerns the target various enzymes (Homo sapiens, UniProt P48730). To be noted: compound 1 uM. Here is the method:
as §1

The target of test [16] is various enzymes (Homo sapiens, UniProt P42336, C420R). Here is the method: as §1
The target in test [17] is various enzymes (Homo sapiens, UniProt P42338). To be noted: compound 1 uM. Here is the method:
as §1

For test [18], the target named is various enzymes (Homo sapiens, UniProt Q9UM73, C1156Y). Here is the method:
as §1

Test [19] concerns the target various enzymes (Homo sapiens, UniProt Q12851). The note with it: compound 1 uM. Here is the method: as §1
Test [20] concerns the target various enzymes (Homo sapiens, UniProt Q9BUB5). To be noted: compound 1 uM. Here is the method: as §1
In test [21] the target is various enzymes (Homo sapiens, UniProt P10721, T670I/V559D). Here is the method:
as §1

The target of test [22] is various enzymes (Homo sapiens, UniProt P51956). The note with it: compound 1 uM. Here is the method: as §1
Sequence of various enzymes (Homo sapiens, UniProt P51956) (P51956 whole entry): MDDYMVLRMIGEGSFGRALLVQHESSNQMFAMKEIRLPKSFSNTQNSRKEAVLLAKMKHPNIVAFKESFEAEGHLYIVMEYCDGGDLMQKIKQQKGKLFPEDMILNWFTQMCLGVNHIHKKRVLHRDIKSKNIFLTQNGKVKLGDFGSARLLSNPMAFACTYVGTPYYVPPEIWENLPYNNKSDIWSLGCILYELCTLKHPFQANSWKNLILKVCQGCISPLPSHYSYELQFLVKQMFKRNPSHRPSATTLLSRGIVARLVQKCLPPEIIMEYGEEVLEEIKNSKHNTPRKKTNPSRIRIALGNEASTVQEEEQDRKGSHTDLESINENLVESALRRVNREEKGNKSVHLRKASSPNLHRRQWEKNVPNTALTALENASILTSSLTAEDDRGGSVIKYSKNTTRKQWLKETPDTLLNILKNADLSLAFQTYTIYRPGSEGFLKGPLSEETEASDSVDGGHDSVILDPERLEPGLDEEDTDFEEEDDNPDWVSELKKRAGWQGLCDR

Like-named read-outs stand apart in the source and are kept apart here.

Sequence of various enzymes (Homo sapiens, UniProt Q9UPE1) (Q9UPE1 whole entry): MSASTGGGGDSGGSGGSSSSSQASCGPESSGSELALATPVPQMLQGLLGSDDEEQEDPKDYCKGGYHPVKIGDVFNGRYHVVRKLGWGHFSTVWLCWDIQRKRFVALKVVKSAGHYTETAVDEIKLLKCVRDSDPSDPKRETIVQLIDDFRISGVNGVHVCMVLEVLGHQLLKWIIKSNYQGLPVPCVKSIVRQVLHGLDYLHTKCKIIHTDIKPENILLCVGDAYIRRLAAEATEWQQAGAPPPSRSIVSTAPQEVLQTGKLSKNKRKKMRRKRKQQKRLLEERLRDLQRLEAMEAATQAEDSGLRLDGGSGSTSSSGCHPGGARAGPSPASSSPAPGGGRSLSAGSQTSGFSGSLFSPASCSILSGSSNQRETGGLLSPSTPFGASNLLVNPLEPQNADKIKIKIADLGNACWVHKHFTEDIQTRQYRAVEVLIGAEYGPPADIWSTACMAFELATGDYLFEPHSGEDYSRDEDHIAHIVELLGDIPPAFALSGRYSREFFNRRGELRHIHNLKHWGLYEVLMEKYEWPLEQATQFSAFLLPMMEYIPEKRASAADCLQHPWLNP
Sequence of various enzymes (Homo sapiens, UniProt P49761) (P49761 whole entry): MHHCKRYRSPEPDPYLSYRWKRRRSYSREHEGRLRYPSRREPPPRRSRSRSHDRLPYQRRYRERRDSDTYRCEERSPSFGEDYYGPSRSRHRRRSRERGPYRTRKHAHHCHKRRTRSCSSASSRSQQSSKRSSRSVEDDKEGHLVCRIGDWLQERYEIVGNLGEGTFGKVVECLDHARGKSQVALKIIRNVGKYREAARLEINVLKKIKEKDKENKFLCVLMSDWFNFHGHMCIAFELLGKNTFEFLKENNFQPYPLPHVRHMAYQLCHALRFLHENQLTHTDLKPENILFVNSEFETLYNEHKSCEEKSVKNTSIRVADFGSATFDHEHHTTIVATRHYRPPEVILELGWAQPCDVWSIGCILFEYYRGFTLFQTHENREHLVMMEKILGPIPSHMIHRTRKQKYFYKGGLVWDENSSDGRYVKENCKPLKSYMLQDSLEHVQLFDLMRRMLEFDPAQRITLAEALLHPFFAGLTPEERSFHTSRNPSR
Sequence of various enzymes (Homo sapiens, UniProt Q8IU85) (Q8IU85 whole entry): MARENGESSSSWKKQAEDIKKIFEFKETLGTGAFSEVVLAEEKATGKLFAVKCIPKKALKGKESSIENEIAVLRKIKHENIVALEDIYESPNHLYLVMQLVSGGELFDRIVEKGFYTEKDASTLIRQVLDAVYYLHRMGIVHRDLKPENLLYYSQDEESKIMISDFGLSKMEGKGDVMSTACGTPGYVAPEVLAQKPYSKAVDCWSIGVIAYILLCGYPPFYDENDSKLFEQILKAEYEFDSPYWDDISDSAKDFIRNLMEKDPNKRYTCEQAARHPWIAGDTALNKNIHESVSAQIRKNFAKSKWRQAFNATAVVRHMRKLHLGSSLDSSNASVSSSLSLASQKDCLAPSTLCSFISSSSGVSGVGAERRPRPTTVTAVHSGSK
Sequence of various enzymes (Homo sapiens, UniProt Q9BUB5) (Q9BUB5 whole entry): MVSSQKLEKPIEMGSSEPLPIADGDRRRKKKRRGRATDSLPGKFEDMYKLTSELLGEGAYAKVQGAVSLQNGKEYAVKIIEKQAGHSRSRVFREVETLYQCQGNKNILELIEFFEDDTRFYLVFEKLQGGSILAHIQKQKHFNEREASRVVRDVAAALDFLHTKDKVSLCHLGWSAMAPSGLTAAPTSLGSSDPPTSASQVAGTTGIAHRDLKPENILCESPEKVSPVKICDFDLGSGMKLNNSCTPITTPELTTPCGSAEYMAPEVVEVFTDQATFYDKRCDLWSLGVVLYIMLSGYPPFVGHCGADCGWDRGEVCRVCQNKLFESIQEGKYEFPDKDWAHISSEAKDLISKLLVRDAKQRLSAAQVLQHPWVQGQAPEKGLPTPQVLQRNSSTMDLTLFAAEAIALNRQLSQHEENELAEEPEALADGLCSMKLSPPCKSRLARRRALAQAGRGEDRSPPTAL
Sequence of various enzymes (Homo sapiens, UniProt Q12851) (Q12851 whole entry): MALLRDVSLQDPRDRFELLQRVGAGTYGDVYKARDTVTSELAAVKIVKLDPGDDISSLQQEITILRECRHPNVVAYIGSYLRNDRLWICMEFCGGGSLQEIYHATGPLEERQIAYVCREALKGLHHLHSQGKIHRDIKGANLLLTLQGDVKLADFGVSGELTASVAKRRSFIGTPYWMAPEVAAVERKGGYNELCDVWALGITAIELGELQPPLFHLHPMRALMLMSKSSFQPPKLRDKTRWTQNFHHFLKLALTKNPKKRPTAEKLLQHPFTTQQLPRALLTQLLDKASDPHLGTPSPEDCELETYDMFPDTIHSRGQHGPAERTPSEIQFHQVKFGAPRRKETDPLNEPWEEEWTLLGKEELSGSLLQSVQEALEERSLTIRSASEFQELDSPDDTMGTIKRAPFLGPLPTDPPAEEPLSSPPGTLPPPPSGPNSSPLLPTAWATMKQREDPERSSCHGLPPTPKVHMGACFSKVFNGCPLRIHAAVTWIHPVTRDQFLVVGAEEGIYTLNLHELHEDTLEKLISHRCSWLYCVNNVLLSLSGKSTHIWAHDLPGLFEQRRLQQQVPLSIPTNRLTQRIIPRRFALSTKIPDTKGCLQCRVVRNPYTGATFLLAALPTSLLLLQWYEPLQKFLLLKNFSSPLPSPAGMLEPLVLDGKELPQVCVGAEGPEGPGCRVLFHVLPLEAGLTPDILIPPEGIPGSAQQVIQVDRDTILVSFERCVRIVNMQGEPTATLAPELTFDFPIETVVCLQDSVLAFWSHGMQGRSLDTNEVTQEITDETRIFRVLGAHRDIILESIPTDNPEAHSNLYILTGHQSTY
Sequence of various enzymes (Homo sapiens, UniProt P48730) (P48730 whole entry): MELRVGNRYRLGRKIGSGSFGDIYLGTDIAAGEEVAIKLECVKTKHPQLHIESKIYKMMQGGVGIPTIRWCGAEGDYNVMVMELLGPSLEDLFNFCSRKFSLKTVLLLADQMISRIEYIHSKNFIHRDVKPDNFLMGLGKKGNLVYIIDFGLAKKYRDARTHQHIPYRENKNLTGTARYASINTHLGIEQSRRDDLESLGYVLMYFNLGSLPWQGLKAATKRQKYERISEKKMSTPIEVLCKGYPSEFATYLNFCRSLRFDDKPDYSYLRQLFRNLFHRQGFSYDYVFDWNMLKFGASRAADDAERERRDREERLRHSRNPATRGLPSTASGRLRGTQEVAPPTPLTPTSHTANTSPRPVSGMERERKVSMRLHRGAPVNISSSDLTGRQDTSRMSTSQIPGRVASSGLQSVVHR
Sequence of various enzymes (Homo sapiens, UniProt Q9NY57) (Q9NY57 whole entry): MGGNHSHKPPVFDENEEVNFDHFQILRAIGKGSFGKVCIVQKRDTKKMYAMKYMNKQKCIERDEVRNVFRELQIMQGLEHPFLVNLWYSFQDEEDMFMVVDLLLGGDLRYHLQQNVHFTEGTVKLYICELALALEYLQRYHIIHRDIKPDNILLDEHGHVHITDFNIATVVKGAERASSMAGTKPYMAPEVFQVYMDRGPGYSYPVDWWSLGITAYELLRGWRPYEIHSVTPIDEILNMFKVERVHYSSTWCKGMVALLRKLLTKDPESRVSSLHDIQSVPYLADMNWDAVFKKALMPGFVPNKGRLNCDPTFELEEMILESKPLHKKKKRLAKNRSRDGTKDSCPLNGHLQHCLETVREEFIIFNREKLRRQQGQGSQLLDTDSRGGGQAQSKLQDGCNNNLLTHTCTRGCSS

Take `CC(C)N1Cc2nn(C)cc2-c2cnc3[nH]cc(c3c2)-c2cn(nc2C(F)(F)F)CCCC1=O` [Compound 45, (Z)-5-isopropyl-31-methyl-13-(trifluoromethyl)-11H,21H,31H-5-aza-2(3,5)-pyrrolo[2,3-b]pyridina-1(4,1),3(4,3)-dipyrazolacyclononaphan-6-one]: the “Ambit profiling: SRPK3” value in test [1] is recorded as 13. Also, in [2], the “Ambit profiling: CAMK1B” value turned out to be 25. In [3], the “Ambit profiling: DAPK3” value was found to be 99. In addition, in test [4], the “Ambit profiling: MAP4K5” value is 1.2. In addition, in test [5], the “Ambit profiling: MET” value is 11. Further, the “Ambit profiling: YANK2” value in [6] is 100. The “Ambit profiling: BMPR2” value in [7] is 78. In [8], the “Ambit profiling: PIK3C2G” value is listed as 97. Further, the “Ambit profiling: ITK” value in test [9] came out at 38. For the same compound, the “Ambit profiling: PKNB(M. tuberculosis)” value in test [10] was found to be 7. Besides, in [11], the “Ambit profiling: CAMK1D” value turned out to be 60. In addition, the “Ambit profiling: PFTAIRE2” value in test [12] was found to be 39. Moreover, the “Ambit profiling: STK36” value in [13] is listed as 100. The “Ambit profiling: CLK3” value in [14] turned out to be 33. Further, in [15], the “Ambit profiling: CSNK1D” value is listed as 28. The “Ambit profiling: PIK3CA(C420R)” value in test [16] (compound 1 uM) was determined as 100. In test [17], the “Ambit profiling: PIK3CB” value is 100. Further, the “Ambit profiling: ALK(C1156Y)” value in test [18] (compound 1 uM) turned out to be 16. For the same compound, the “Ambit profiling: MAP4K2” value in test [19] turned out to be 3.9. Besides, in [20], the “Ambit profiling: MKNK1” value is 100. Moreover, the “Ambit profiling: KIT(V559D, T670I)” value in test [21] (compound 1 uM) worked out at 8.2. Besides, in test [22], the “Ambit profiling: NEK3” value was determined as 50.

For `COc1c2c(nn1C)CN(C(C)C)C(=O)CCCn1cc(c(C(F)(F)F)n1)-c1c[nH]c3ncc-2cc13` [Compound 50, (Z)-5-isopropyl-35-methoxy-31-methyl-13-(trifluoromethyl)-11H,21H,31H-5-aza-2(3,5)-pyrrolo[2,3-b]pyridina-1(4,1),3(4,3)-dipyrazolacyclononaphan-6-one], in [1], the “Ambit profiling: SRPK3” value came to 38. For the same compound, the “Ambit profiling: CAMK1B” value in test [2] came to 16. The “Ambit profiling: DAPK3” value in test [3] is on record as 71. The “Ambit profiling: MAP4K5” value in test [4] worked out at 4.1. Besides, in test [5], the “Ambit profiling: MET” value stood at 3.8. Moreover, the “Ambit profiling: YANK2” value in test [6] came out at 45. The “Ambit profiling: BMPR2” value in [7] is given as 89. In addition, the “Ambit profiling: PIK3C2G” value in test [8] was 58. Moreover, in test [9], the “Ambit profiling: ITK” value is 46. In addition, in test [10], the “Ambit profiling: PKNB(M. tuberculosis)” value is 36. For the same compound, the “Ambit profiling: CAMK1D” value in [11] is 38. In addition, the “Ambit profiling: PFTAIRE2” value in [12] is recorded as 60. For the same compound, the “Ambit profiling: STK36” value in [13] is on record as 100. In test [14], the “Ambit profiling: CLK3” value is reported as 26. Further, the “Ambit profiling: CSNK10” value in test [15] is 11. Further, the “Ambit profiling: PIK3CA(C420R)” value in test [16] amounted to 91. Besides, the “Ambit profiling: PIK3CB” value in [17] is recorded as 100. Besides, the “Ambit profiling: ALK(C1156Y)” value in [18] is 26. For the same compound, the “Ambit profiling: MAP4K2” value in test [19] was 44. Besides, the “Ambit profiling: MKNK1” value in test [20] worked out at 83. The “Ambit profiling: KIT(V559D, T670I)” value in test [21] worked out at 10. Moreover, the “Ambit profiling: NEK3” value in [22] was found to be 51.
